# Reference: PubChem BioAssay AID2060891 (Molecular Pharmacology Branch, DTP, NCI, 2025)
# pIC50: −log10 of the molar value.
# Tested on: K98450-129-R-PDC complex spheroid growth, percent test/control
# Assay: Anticancer human tumor K98450-129-R-PDC patient-derived colon adenocarcinoma cell line growth inhibition [RAS]
# Settings: for pIC50: curve of first compound; for viability, T/C: stronger effect = lower value
# Method in brief: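 Agents were tested in combination matrices in half-log decrements from a top concentration at or near clinical Cmax (10 microM if undetermined). Targets were multi-cell spheroids of tumour lines plus HUVEC and MSC stromal cells.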
# 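Also: spheroids exposed to agents for seven days before the viability readout.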
# 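For viability, T/C in this document: luminescence used as a proxy for viable cell amount.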
smiles,measurement,setting,value
CCc1c2c(nc3ccc(O)cc13)-c1cc3c(c(=O)n1C2)COC(=O)[C@]3(O)CC + C#Cc1c(F)ccc2cc(O)cc(-c3ncc4c(N5CC6CCC(C5)N6)nc(OCC56CCCN5CC(F)C6)nc4c3F)c12,pIC50,second compound 0.0316 µM,7.44
same,pIC50,second compound 0.1 µM,7.36
same,pIC50,second compound 0.316 µM,7.32
same,pIC50,second compound 1 µM,7.33
same,pIC50,second compound 3.16 µM,7.36
same,pIC50,second compound 10 µM,7.48
same,"viability, T/C","second compound 0.0316 µM, first compound 0.000949 µM",103%
same,"viability, T/C","second compound 0.0316 µM, first compound 0.003 µM",102%
same,"viability, T/C","second compound 0.0316 µM, first compound 0.00949 µM",75.7%
same,"viability, T/C","second compound 0.0316 µM, first compound 0.03 µM",52.2%
same,"viability, T/C","second compound 0.0316 µM, first compound 0.0949 µM",43.3%
same,"viability, T/C","second compound 0.0316 µM, first compound 0.3 µM",33.5%
same,"viability, T/C","second compound 0.1 µM, first compound 0.000949 µM",109%
same,"viability, T/C","second compound 0.1 µM, first compound 0.003 µM",101%
same,"viability, T/C","second compound 0.1 µM, first compound 0.00949 µM",80.5%
same,"viability, T/C","second compound 0.1 µM, first compound 0.03 µM",52.5%
same,"viability, T/C","second compound 0.1 µM, first compound 0.0949 µM",44.4%
same,"viability, T/C","second compound 0.1 µM, first compound 0.3 µM",33%
same,"viability, T/C","second compound 0.316 µM, first compound 0.000949 µM",108%
same,"viability, T/C","second compound 0.316 µM, first compound 0.003 µM",101%
same,"viability, T/C","second compound 0.316 µM, first compound 0.00949 µM",84.5%
same,"viability, T/C","second compound 0.316 µM, first compound 0.03 µM",54.4%
same,"viability, T/C","second compound 0.316 µM, first compound 0.0949 µM",43.6%
same,"viability, T/C","second compound 0.316 µM, first compound 0.3 µM",34%
same,"viability, T/C","second compound 1 µM, first compound 0.000949 µM",109%
same,"viability, T/C","second compound 1 µM, first compound 0.003 µM",100%
same,"viability, T/C","second compound 1 µM, first compound 0.00949 µM",86.8%
same,"viability, T/C","second compound 1 µM, first compound 0.03 µM",54%
same,"viability, T/C","second compound 1 µM, first compound 0.0949 µM",42.9%
same,"viability, T/C","second compound 1 µM, first compound 0.3 µM",36.9%
same,"viability, T/C","second compound 3.16 µM, first compound 0.000949 µM",95.7%
same,"viability, T/C","second compound 3.16 µM, first compound 0.003 µM",89.3%
same,"viability, T/C","second compound 3.16 µM, first compound 0.00949 µM",78.1%
same,"viability, T/C","second compound 3.16 µM, first compound 0.03 µM",51.9%
same,"viability, T/C","second compound 3.16 µM, first compound 0.0949 µM",43.6%
same,"viability, T/C","second compound 3.16 µM, first compound 0.3 µM",33.1%
same,"viability, T/C","second compound 10 µM, first compound 0.000949 µM",87.2%
same,"viability, T/C","second compound 10 µM, first compound 0.003 µM",84.3%
same,"viability, T/C","second compound 10 µM, first compound 0.00949 µM",75.5%
same,"viability, T/C","second compound 10 µM, first compound 0.03 µM",50.9%
same,"viability, T/C","second compound 10 µM, first compound 0.0949 µM",37.2%
same,"viability, T/C","second compound 10 µM, first compound 0.3 µM",33.8%
C=CC(=O)Nc1cc(Nc2nccc(-c3cn(C)c4ccccc34)n2)c(OC)cc1N(C)CCN(C)C + C=CC(=O)N1CCN(c2nc(OCC3CCCN3C)nc3c(F)c(-c4nc(N)cc(C)c4C(F)(F)F)c(Cl)cc23)C(C)C1,pIC50,second compound 0.00316 µM,6.71
same,pIC50,second compound 0.01 µM,6.82
same,pIC50,second compound 0.0316 µM,7.27
same,pIC50,second compound 0.1 µM,7.98
same,pIC50,second compound 0.316 µM,> 8.50
same,pIC50,second compound 1 µM,> 8.50
same,"viability, T/C","second compound 0.00316 µM, first compound 0.00316 µM",93.5%
same,"viability, T/C","second compound 0.00316 µM, first compound 0.01 µM",85.9%
same,"viability, T/C","second compound 0.00316 µM, first compound 0.0316 µM",91%
same,"viability, T/C","second compound 0.00316 µM, first compound 0.1 µM",83.5%
same,"viability, T/C","second compound 0.00316 µM, first compound 0.316 µM",25.5%
same,"viability, T/C","second compound 0.00316 µM, first compound 1 µM",9.6%
same,"viability, T/C","second compound 0.01 µM, first compound 0.00316 µM",94.4%
same,"viability, T/C","second compound 0.01 µM, first compound 0.01 µM",78%
same,"viability, T/C","second compound 0.01 µM, first compound 0.0316 µM",85.2%
same,"viability, T/C","second compound 0.01 µM, first compound 0.1 µM",71.3%
same,"viability, T/C","second compound 0.01 µM, first compound 0.316 µM",11.4%
same,"viability, T/C","second compound 0.01 µM, first compound 1 µM",8.81%
same,"viability, T/C","second compound 0.0316 µM, first compound 0.00316 µM",70.3%
same,"viability, T/C","second compound 0.0316 µM, first compound 0.01 µM",70.4%
same,"viability, T/C","second compound 0.0316 µM, first compound 0.0316 µM",63.6%
same,"viability, T/C","second compound 0.0316 µM, first compound 0.1 µM",34.3%
same,"viability, T/C","second compound 0.0316 µM, first compound 0.316 µM",9.39%
same,"viability, T/C","second compound 0.0316 µM, first compound 1 µM",8.93%
same,"viability, T/C","second compound 0.1 µM, first compound 0.00316 µM",56.3%
same,"viability, T/C","second compound 0.1 µM, first compound 0.01 µM",47.9%
same,"viability, T/C","second compound 0.1 µM, first compound 0.0316 µM",38.7%
same,"viability, T/C","second compound 0.1 µM, first compound 0.1 µM",17.6%
same,"viability, T/C","second compound 0.1 µM, first compound 0.316 µM",8.42%
same,"viability, T/C","second compound 0.1 µM, first compound 1 µM",8.07%
same,"viability, T/C","second compound 0.316 µM, first compound 0.00316 µM",39%
same,"viability, T/C","second compound 0.316 µM, first compound 0.01 µM",34.4%
same,"viability, T/C","second compound 0.316 µM, first compound 0.0316 µM",29.3%
same,"viability, T/C","second compound 0.316 µM, first compound 0.1 µM",13.7%
same,"viability, T/C","second compound 0.316 µM, first compound 0.316 µM",10.3%
same,"viability, T/C","second compound 0.316 µM, first compound 1 µM",9.33%
same,"viability, T/C","second compound 1 µM, first compound 0.00316 µM",30.4%
same,"viability, T/C","second compound 1 µM, first compound 0.01 µM",27.1%
same,"viability, T/C","second compound 1 µM, first compound 0.0316 µM",22.6%
same,"viability, T/C","second compound 1 µM, first compound 0.1 µM",13.8%
same,"viability, T/C","second compound 1 µM, first compound 0.316 µM",10.9%
same,"viability, T/C","second compound 1 µM, first compound 1 µM",9.84%
